According to patent publication EP2403490B1, “AN IMPROVED DRY POWDER DRUG DELIVERY SYSTEM” (MannKind Corporation, priority 2009, dated 2010):

Key:
Assay type in all cases: physicochemical
[1] = Geometric particle size of emitted formulations by VMGD, laser diffraction (Example 6); details: 56 % trans
Description: Laser diffraction of dry powder formulations emitted from dry powder inhalers is a common methodology employed to characterize the level of de-agglomeration subjected to a powder. The methodology indicates a measure of geometric size rather than aerodynamic size as occurring in industry standard impaction methodologies. Typically, the geometric size of the emitted powder includes a volumetric distribution characterized by the median particle size, VMGD. Importantly, geometric sizes of the emitted particles are discerned with heightened resolution as compared to the aerodynamic sizes provided by impaction methods. Smaller sizes are preferred and result in greater likelihood of individual particles being delivered to the pulmonary tract. Thus, differences in inhaler de-agglomeration and ultimate performance can be easier to resolve with diffraction. In these experiments, an inhaler as specified in Example 3 and a predicate inhaler are tested with laser diffraction at pressures analogous to actual patient inspiratory capacities to determine the effectiveness of the inhalation system to de-agglomerate powder formulations. […] Reported in Table 5 are a VMGD and an efficiency of the container emptying during the testing. […]

[2] = In vitro performance DPI 2 vs MEDTONE delivery system, laser diffraction and emitted mass (Example 7); details: fill weight 10 mg, 4 kPa
Description: This system includes dry powder formulations, pre-metered into single-use cartridges and inserted into a high resistance, breath-powered, re-usable MEDTONE(R) inhaler. […] In vitro powder performance for these systems was compared for various parameter of inhaler performance. For DPI 2 a single discharge per cartridge was used as compared to two discharges per cartridge in the MEDTONE(R) system.
Particle sizing by laser diffraction and quantification of emitted mass as described above were used in these experiments. A laser diffraction instrument (Sympatec HELOS) was adapted with a novel pressurized inhaler chamber to facilitate analysis of powder plumes. MTDS cartridges were discharged twice per determination versus once with DPI 2.

[3] = Powder flowability (Hausner ratio, compressibility index, angle of repose, critical orifice testing)
Description: The compressibility index (Cl) can be calculated from the Hausner ratio (HR) as C1 = 100 × (1−(1/HR)). [formula]
FDKP microparticles either unmodified or containing a drug, for example insulin, constitute highly cohesive powders.

[4] = DPI 2, single discharge, 15 cartridges
[5] = MEDTONE® (MTDS), two discharges, 30 cartridges

SMILES: O=C(O)/C=C/C(=O)NCCCCC1NC(=O)C(CCCCNC(=O)/C=C/C(=O)O)NC1=O (stereo not shown) [FDKP, bis-3,6-(N-fumaryl-4-aminobutyl)-2,5-diketopiperazine]
- VMGD ([1]; DPI 2, SSA 55 m2/g, pressure drop 4 kPa): 6.800 micron
- VMGD ([1]; MEDTONE®, SSA 55, 4 kPa): 21.200 micron
- Ave. Geometric SD [2, 4]: 3.79 µm
- Ave. VMGD [2, 4]: 6.84 µm
- Ave. Geometric SD [2, 5]: 2.94 µm
- Ave. VMGD [2, 5]: 21.21 µm
- angle of repose [3]: 40 °
